Experimental data published in patent US20250346597A1, “CONDENSED HETEROCYCLIC COMPOUNDS AS INHIBITOR OF DIACYLGLYCEROL KINASES” (BEONE MEDICINES I GMBH, priority 2023, published 2025).

Tests used:
[1] = molecular target: DGKα (Homo sapiens (Human), UniProt P23743); assay: Biochemical DGK IC50 assay (ADP-Glo, lipid micelle substrate), DGKα; details: full length DGKα […], ATP 140 μM, DAG 80 μM; also: full length DGKα 7.5 nM
Method in brief: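 Full-length human DGKα assayed by ADP-Glo with DAG/PS lipid micelle substrate at room temperature in 50 mM HEPES, 10 mM MgCl2, 0.01% BSA, 0.1 mM Na3VO4, 0.005% Tween-20, 0.01 mM CaCl2.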

[2] = molecular target: DGKζ (Homo sapiens (Human), UniProt Q13574); assay: Biochemical DGK IC50 assay (ADP-Glo, lipid micelle substrate), DGKζ; details: full length DGKζ 0.5 nM, ATP 140 μM, DAG 80 μM
Method in brief: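 Full-length human His-TEV-tagged DGKζ, expressed in Sf9 cells and purified, was run at room temperature on DAG/PS lipid micelles in 50 mM HEPES, 10 mM MgCl2, 0.01 mM CaCl2 buffer. After 1 h reaction, ADP formed was detected by ADP-Glo luminescence. IC50s came from inhibition across increasing compound concentrations.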

DGKα, sequence (P23743 whole entry): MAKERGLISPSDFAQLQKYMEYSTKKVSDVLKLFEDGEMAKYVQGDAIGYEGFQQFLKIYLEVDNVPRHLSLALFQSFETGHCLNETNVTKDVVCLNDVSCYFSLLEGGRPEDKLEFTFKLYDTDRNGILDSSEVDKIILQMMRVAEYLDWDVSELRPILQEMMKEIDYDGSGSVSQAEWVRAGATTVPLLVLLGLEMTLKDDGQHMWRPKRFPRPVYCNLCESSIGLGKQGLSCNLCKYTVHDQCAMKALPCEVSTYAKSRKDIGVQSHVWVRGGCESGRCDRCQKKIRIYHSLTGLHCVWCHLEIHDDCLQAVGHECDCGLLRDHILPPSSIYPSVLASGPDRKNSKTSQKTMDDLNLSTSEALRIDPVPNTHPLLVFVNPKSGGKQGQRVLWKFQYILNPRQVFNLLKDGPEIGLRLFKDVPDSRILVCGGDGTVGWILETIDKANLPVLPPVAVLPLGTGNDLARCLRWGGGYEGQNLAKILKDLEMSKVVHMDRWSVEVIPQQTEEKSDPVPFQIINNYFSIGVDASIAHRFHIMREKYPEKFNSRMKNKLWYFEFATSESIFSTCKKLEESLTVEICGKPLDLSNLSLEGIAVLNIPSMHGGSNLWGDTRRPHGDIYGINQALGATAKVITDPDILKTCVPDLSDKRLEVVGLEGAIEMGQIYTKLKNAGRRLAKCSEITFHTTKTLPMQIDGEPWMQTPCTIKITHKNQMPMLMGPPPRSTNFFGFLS
DGKζ, sequence (Q13574 other isoform, or with tags, fused parts or gaps): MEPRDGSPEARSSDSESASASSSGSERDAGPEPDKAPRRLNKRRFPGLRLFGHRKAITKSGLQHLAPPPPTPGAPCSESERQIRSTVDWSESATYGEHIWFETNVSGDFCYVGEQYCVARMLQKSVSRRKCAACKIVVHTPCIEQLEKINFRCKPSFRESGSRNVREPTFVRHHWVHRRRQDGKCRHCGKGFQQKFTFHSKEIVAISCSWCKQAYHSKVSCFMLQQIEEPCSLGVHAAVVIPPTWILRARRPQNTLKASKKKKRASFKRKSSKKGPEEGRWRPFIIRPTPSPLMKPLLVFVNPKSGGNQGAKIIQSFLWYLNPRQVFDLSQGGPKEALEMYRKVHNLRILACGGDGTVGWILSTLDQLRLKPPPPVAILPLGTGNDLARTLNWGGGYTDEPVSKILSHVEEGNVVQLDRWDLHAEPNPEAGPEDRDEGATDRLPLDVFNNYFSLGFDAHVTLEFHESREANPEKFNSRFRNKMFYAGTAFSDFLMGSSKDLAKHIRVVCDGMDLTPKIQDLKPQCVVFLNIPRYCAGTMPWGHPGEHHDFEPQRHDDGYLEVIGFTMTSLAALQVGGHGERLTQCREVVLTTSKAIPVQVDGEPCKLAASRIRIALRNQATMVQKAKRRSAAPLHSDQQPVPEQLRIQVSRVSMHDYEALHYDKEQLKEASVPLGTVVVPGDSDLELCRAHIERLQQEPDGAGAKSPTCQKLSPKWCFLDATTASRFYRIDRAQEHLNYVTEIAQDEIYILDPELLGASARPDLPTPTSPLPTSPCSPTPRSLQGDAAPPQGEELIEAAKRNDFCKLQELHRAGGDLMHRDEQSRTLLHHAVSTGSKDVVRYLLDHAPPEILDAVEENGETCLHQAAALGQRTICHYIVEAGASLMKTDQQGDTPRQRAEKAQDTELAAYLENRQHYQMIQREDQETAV

`CC[C@H]1CN(C(C)c2ccn3ncc(F)c3c2)[C@H](CC)CN1c1cc(=O)n(C)c2cn(CC#N)nc12` (single isomer, unassigned) [Compound A165b] gave an IC50 [1] of 2440 nM and an IC50 [2] of 1580 nM.
In the case of `CC[C@@H]1CN(c2cc(=O)n(C)c3cn(CC#N)nc23)[C@@H](C)CN1C(C)c1ccn2nccc2n1` (single isomer, unassigned) [Compound A166a], the IC50 [1] is reported as 93 nM and the IC50 [2] is reported as 227 nM.
With `CC[C@@H]1CN(c2cc(=O)n(C)c3cn(CC#N)nc23)[C@@H](C)CN1C(C)c1ccn2nccc2n1` (single isomer, unassigned) [Compound A166b] the IC50 [1] was 1630 nM and the IC50 [2] was greater than 10000 nM.
`CC[C@H]1CN(C(C)c2ccc3ncc(Cl)n3n2)[C@H](CC)CN1c1cc(=O)n(C)c2cn(CC#N)nc12` (single isomer, unassigned) [Compound A167a] was tested, and the IC50 [1] was greater than 10000 nM and the IC50 [2] was greater than 10000 nM.
In the case of `CC[C@H]1CN(C(C)c2ccc3ncc(Cl)n3n2)[C@H](CC)CN1c1cc(=O)n(C)c2cn(CC#N)nc12` (single isomer, unassigned) [Compound A167b], the IC50 [1] is reported as 219 nM and the IC50 [2] is reported as 23 nM.
`CC[C@H]1CN(C(C)c2ccc3ncc(F)n3n2)[C@H](CC)CN1c1cc(=O)n(C)c2cn(CC#N)nc12` (single isomer, unassigned) [Compound A168a] showed an IC50 [1] of 3410 nM and an IC50 [2] of 3600 nM.
Work on `CC[C@H]1CN(C(C)c2ccc3ncc(F)n3n2)[C@H](CC)CN1c1cc(=O)n(C)c2cn(CC#N)nc12` (single isomer, unassigned) [Compound A168b] yielded an IC50 [1] of 54 nM and an IC50 [2] of 69 nM.
Work on `CC[C@H]1CN(C(C)c2ccn3nc(C)c(F)c3c2)[C@H](CC)CN1c1cc(=O)n(C)c2cn(CC#N)nc12` (single isomer, unassigned) [Compound A169a] yielded an IC50 [1] of 3210 nM and an IC50 [2] of 211 nM.
With `CC[C@H]1CN(C(C)c2ccn3nc(C)c(F)c3c2)[C@H](CC)CN1c1cc(=O)n(C)c2cn(CC#N)nc12` (single isomer, unassigned) [Compound A169b] the IC50 [1] was greater than 10000 nM and the IC50 [2] was 9280 nM.
Compound `CC[C@H]1CN(C(C)c2ccn3nc(C)c(F)c3n2)[C@H](CC)CN1c1nc(=O)n(C)c2cn(CC#N)nc12` (single isomer, unassigned) [Compound A170a] has an IC50 [1] greater than 10000 nM and an IC50 [2] greater than 10000 nM.
With `CC[C@H]1CN(C(C)c2ccn3nc(C)c(F)c3n2)[C@H](CC)CN1c1nc(=O)n(C)c2cn(CC#N)nc12` (single isomer, unassigned) [Compound A170b] the IC50 [1] was 109 nM and the IC50 [2] was 52.5 nM.
Compound `CCC(c1ccn2nc(C)cc2n1)N1C[C@H](C)N(c2cc(=O)n(C)c3cn(CC#N)nc23)C[C@H]1CC` (single isomer, unassigned) [Compound A171a] has an IC50 [1] of 107 nM and an IC50 [2] of 116 nM.
With `CCC(c1ccn2nc(C)cc2n1)N1C[C@H](C)N(c2cc(=O)n(C)c3cn(CC#N)nc23)C[C@H]1CC` (single isomer, unassigned) [Compound A171b] the IC50 [1] was 2690 nM and the IC50 [2] was 5430 nM.
`CC[C@@H]1CN(c2cc(=O)n(C)c3cn(CC#N)nc23)[C@@H](C)CN1C(C)c1ccn2nc(C)cc2n1` (single isomer, unassigned) [Compound A172a] was tested, and the IC50 [1] was 158 nM and the IC50 [2] was 108 nM.
With `CC[C@@H]1CN(c2cc(=O)n(C)c3cn(CC#N)nc23)[C@@H](C)CN1C(C)c1ccn2nc(C)cc2n1` (single isomer, unassigned) [Compound A172b] the IC50 [1] was 7830 nM and the IC50 [2] was greater than 10000 nM.
With `CC[C@@H]1CN(c2cc(=O)n(C)c3cn(CC#N)nc23)[C@@H](C)CN1[C@@H](C)c1ccn2nc(C)c(F)c2n1` (single isomer, unassigned) [Compound A173a] the IC50 [1] was 168 nM and the IC50 [2] was 19 nM.
`CC[C@@H]1CN(c2cc(=O)n(C)c3cn(CC#N)nc23)[C@@H](C)CN1[C@H](C)c1ccn2nc(C)c(F)c2n1` (single isomer, unassigned) [Compound A173b] showed an IC50 [1] greater than 10000 nM and an IC50 [2] of 2950 nM.
In the case of `CC[C@H]1CN(C(C)c2ccc3ncc(Cl)n3n2)[C@H](CC)CN1c1nc(=O)n(C)c2cn(CC#N)nc12` (single isomer, unassigned) [Compound A174a], the IC50 [1] is reported as 6470 nM and the IC50 [2] is reported as 8850 nM.
